PubChem BioAssay AID1259411 (Chemical Carcinogenesis Research Information System (CCRIS), 2018)
Activity calls are given as the source filed them. No rule for the calls is given here.

Test system: rodent carcinogenicity bioassays, tumor incidence
Experiment: CCRIS carcinogenicity studies
Excerpt: The CCRIS database contains chemical records with carcinogenicity, mutagenicity, tumor promotion, and tumor inhibition test results. It was developed by the National Cancer Institute (NCI). Data are derived from studies cited in primary journals, current awareness tools, NCI reports, and other sources. Test results have been reviewed by experts in carcinogenesis and mutagenesis.
CCRIS provides historical information from the years 1985 - 2011. It is no longer updated.
This is an archive assay for CCRIS carcinogenicity studies.

SMILES: COC(C)(C)C
- carcinogen call (Species: MOUSE, Strain/Sex: CD-1/FEMALE, Route: INHALATION, Dose: 0, 400, 3000, 8000 PPM IN AIR 6 HR/D 5 D/WK FOR 18 MO (STUDY DURATION: 18 MO), Dose: 0, 400, 3000, 8000 PPM IN AIR 6 HR/D 5 D/WK FOR 18 MO (STUDY DURATION: 18 MO), Tumor Site: Type of Lesion: LIVER: ADENOMA): active; positive
- carcinogen call (Species: MOUSE, Strain/Sex: CD-1/MALE, Route: INHALATION, Dose: 0, 400, 3000, 8000 PPM IN AIR 6 HR/D 5 D/WK FOR 18 MO (STUDY DURATION: 18 MO), Dose: 0, 400, 3000, 8000 PPM IN AIR 6 HR/D 5 D/WK FOR 18 MO (STUDY DURATION: 18 MO)): inactive; negative
- carcinogen call (Species: RAT, Strain/Sex: F344/FEMALE, Route: INHALATION, Dose: 0, 400, 3000, 8000 PPM IN AIR 6 HR/D 5 D/WK FOR 24 MO (STUDY DURATION: 24 MO), Dose: 0, 400, 3000, 8000 PPM IN AIR 6 HR/D 5 D/WK FOR 24 MO (STUDY DURATION: 24 MO)): inactive; negative
- carcinogen call (Species: RAT, Strain/Sex: F344/MALE, Route: INHALATION, Dose: 0, 400, 3000, 8000 PPM IN AIR 6 HR/D 5 D/WK FOR 24 MO (STUDY DURATION: 24 MO), Dose: 0, 400, 3000, 8000 PPM IN AIR 6 HR/D 5 D/WK FOR 24 MO (STUDY DURATION: 24 MO), Tumor Site: Type of Lesion: KIDNEY(RENAL TUBULE): ADENOMA OR CARCINOMA): active; positive
- carcinogen call (Species: RAT, Strain/Sex: SPRAGUE-DAWLEY/FEMALE, Route: GAVAGE, Dose: 0, 250, 1000 MG/KG BW IN 1 ML OLIVE OIL 1/D 4 D/WK FOR 104 WK (STUDY DURATION: 166 WK), Dose: 0, 250, 1000 MG/KG BW IN 1 ML OLIVE OIL 1/D 4 D/WK FOR 104 WK (STUDY DURATION: 166 WK), Tumor Site: Type of Lesion: HEMOLYMPHORETICULAR SYSTEM: LYMPHOMA OR LEUKEMIA): active; positive
- carcinogen call (Species: RAT, Strain/Sex: SPRAGUE-DAWLEY/FEMALE, Route: GAVAGE, Dose: 0, 250, 1000 MG/KG BW IN OLIVE OIL 1/D 4D/WK FOR 104 WK (STUDY DURATION: LIFE SPAN), Dose: 0, 250, 1000 MG/KG BW IN OLIVE OIL 1/D 4D/WK FOR 104 WK (STUDY DURATION: LIFE SPAN), Tumor Site: Type of Lesion: MULTIPLE SITES: LYMPHOMA OR LEUKEMIA): active; positive
- carcinogen call (Species: RAT, Strain/Sex: SPRAGUE-DAWLEY/MALE, Route: GAVAGE, Dose: 0, 250, 1000 MG/KG BW IN 1 ML OLIVE OIL 1/D 4 D/WK FOR 104 WK (STUDY DURATION: 166 WK), Dose: 0, 250, 1000 MG/KG BW IN 1 ML OLIVE OIL 1/D 4 D/WK FOR 104 WK (STUDY DURATION: 166 WK), Tumor Site: Type of Lesion: TESTES: LEYDIG CELL TUMOR): active; positive
- carcinogen call (Species: RAT, Strain/Sex: SPRAGUE-DAWLEY/MALE, Route: GAVAGE, Dose: 0, 250, 1000 MG/KG BW IN OLIVE OIL 1/D 4D/WK FOR 104 WK (STUDY DURATION: LIFE SPAN), Dose: 0, 250, 1000 MG/KG BW IN OLIVE OIL 1/D 4D/WK FOR 104 WK (STUDY DURATION: LIFE SPAN), Tumor Site: Type of Lesion: TESTES: LEYDIG CELL TUMOR): active; positive

SMILES: Nc1ccc(-c2ccc(F)cc2)cc1
- carcinogen call (Species: MOUSE, Strain/Sex: CBA/FEMALE, Route: GAVAGE, Dose: 0, 0.05 ML OF 1% IN ARACHIS OIL 2/WK FOR 6 MO FOR AN ESTIMATED TOTAL DOSE OF 0, 13 MG (STUDY DURATION: 119 WK), Dose: 0, 0.05 ML OF 1% IN ARACHIS OIL 2/WK FOR 6 MO FOR AN ESTIMATED TOTAL DOSE OF 0, 13 MG (STUDY DURATION: 119 WK), Tumor Site: Type of Lesion: LIVER: HEPATOMA): active; positive
- carcinogen call (Species: MOUSE, Strain/Sex: CBA/MALE, Route: GAVAGE, Dose: 0, 0.05 ML OF 1% IN ARACHIS OIL 2/WK FOR 6 MO FOR AN ESTIMATED TOTAL DOSE OF 0, 13 MG (STUDY DURATION: 109 WK), Dose: 0, 0.05 ML OF 1% IN ARACHIS OIL 2/WK FOR 6 MO FOR AN ESTIMATED TOTAL DOSE OF 0, 13 MG (STUDY DURATION: 109 WK), Tumor Site: Type of Lesion: LIVER: HEPATOMA): active; positive

SMILES: N[C@@H](Cc1ccc(N(CCCl)CCCl)cc1)C(=O)O
- carcinogen call (Species: HUMAN, Route: ORAL, Tumor Site: Type of Lesion: HEMATOPOIETIC SYSTEM (LEUKEMIA), LYMPHATIC SYSTEM: LYMPHOMA): active; positive
- carcinogen call (Species: MOUSE, Strain/Sex: STRAIN-A/MALE,FEMALE, Route: INTRAPERITONEAL, Dose: 0.27, 1.07, 4.27, 17.1 MG/KG IN 12 DOSES OVER 4 WK, Dose: 0.27, 1.07, 4.27, 17.1 MG/KG IN 12 DOSES OVER 4 WK, Tumor Site: Type of Lesion: LUNG: ADENOMA): active; positive
- carcinogen call (Species: MOUSE, Strain/Sex: SWISS/FEMALE, Route: INTRAPERITONEAL, Dose: 0.75, 1.5 MG/KG 3/WK FOR 6 MO, Tumor Site: Type of Lesion: LUNG: ADENOMA): active; positive
- carcinogen call (Species: MOUSE, Strain/Sex: SWISS/MALE, Route: INTRAPERITONEAL, Dose: 0.75, 1.5 MG/KG 3/WK FOR 6 MO, Tumor Site: Type of Lesion: LUNG: ADENOMA, LYMPHATIC SYSTEM: LYMPHOSARCOMA): active; positive
- carcinogen call (Species: RAT, Strain/Sex: STRAIN-CD/MALE,FEMALE, Route: INTRAPERITONEAL, Dose: 0.9, 1.8 MG/KG 3/WK FOR 6 MO, Tumor Site: Type of Lesion: PERITONEAL CAVITY: SARCOMA): active; positive

SMILES: NC(=O)N(N)c1ccccc1
- carcinogen call (Species: MOUSE, Route: ORAL, Tumor Site: Type of Lesion: LIVER, LUNG): active; positive

SMILES: Clc1ccccc1
- carcinogen call (Species: MOUSE, Strain/Sex: B6C3F1/FEMALE, Route: GAVAGE, Dose: 0, 60, 120 MG/KG IN CORN OIL 5 D/WK FOR 103 WK (STUDY DURATION: 105 WK), Dose: 0, 60, 120 MG/KG IN CORN OIL 5 D/WK FOR 103 WK (STUDY DURATION: 105 WK)): inactive; negative
- carcinogen call (Species: MOUSE, Strain/Sex: B6C3F1/MALE, Route: GAVAGE, Dose: 0, 30, 60 MG/KG IN CORN OIL 5 D/WK FOR 103 WK (STUDY DURATION: 105 WK), Dose: 0, 30, 60 MG/KG IN CORN OIL 5 D/WK FOR 103 WK (STUDY DURATION: 105 WK)): inactive; negative
- carcinogen call (Species: RAT, Strain/Sex: F344/FEMALE, Route: GAVAGE, Dose: 0, 60, 120 MG/KG IN CORN OIL 5 D/WK FOR 103 WK (STUDY DURATION: 105 WK), Dose: 0, 60, 120 MG/KG IN CORN OIL 5 D/WK FOR 103 WK (STUDY DURATION: 105 WK)): inactive; negative
- carcinogen call (Species: RAT, Strain/Sex: F344/MALE, Route: GAVAGE, Dose: 0, 60, 120 MG/KG IN CORN OIL 5 D/WK FOR 103 WK (STUDY DURATION: 105 WK), Dose: 0, 60, 120 MG/KG IN CORN OIL 5 D/WK FOR 103 WK (STUDY DURATION: 105 WK), Tumor Site: Type of Lesion: LIVER: NEOPLASTIC NODULE, NEOPLASTIC NODULE OR CARCINOMA): equivocal

SMILES: CN(C)CCOC(c1ccccc1)c1ccccc1
- carcinogen call (Species: MOUSE, Strain/Sex: B6C3F1/FEMALE, Route: ORAL, Dose: 0, 156, 313 PPM IN FEED FOR 103 WK (STUDY DURATION: 106 WK), Dose: 0, 156, 313 PPM IN FEED FOR 103 WK (STUDY DURATION: 106 WK)): inactive; negative
- carcinogen call (Species: MOUSE, Strain/Sex: B6C3F1/MALE, Route: ORAL, Dose: 0, 156, 313 PPM IN FEED FOR 105 WK (STUDY DURATION: 106 WK), Dose: 0, 156, 313 PPM IN FEED FOR 105 WK (STUDY DURATION: 106 WK)): inactive; negative
- carcinogen call (Species: RAT, Strain/Sex: F344/FEMALE, Route: ORAL, Dose: 0, 156, 313 PPM IN FEED FOR 103 WK (STUDY DURATION: 106 WK), Dose: 0, 156, 313 PPM IN FEED FOR 103 WK (STUDY DURATION: 106 WK), Tumor Site: Type of Lesion: PITUITARY GLAND: ADENOMA): equivocal
- carcinogen call (Species: RAT, Strain/Sex: F344/FEMALE, Route: ORAL, Dose: 0, 2000 PPM IN DIET FOR 106 WK (STUDY DURATION: 130 WK)): inactive; negative
- carcinogen call (Species: RAT, Strain/Sex: F344/MALE, Route: ORAL, Dose: 0, 313, 625 PPM IN FEED FOR 103 WK (STUDY DURATION: 106 WK), Dose: 0, 313, 625 PPM IN FEED FOR 103 WK (STUDY DURATION: 106 WK), Tumor Site: Type of Lesion: BRAIN: ASTROCYTOMA OR GLIOMA, LUNG: ALVEOLAR/BRONCHIOLAR ADENOMA OR CARCINOMA): equivocal
- carcinogen call (Species: RAT, Strain/Sex: F344/MALE, Route: ORAL, Dose: 0, 2000 PPM IN DIET FOR 106 WK (STUDY DURATION: 130 WK)): inactive; negative

SMILES: C=C1C[C@]23C[C@@]1(O)CC[C@H]2[C@@]12C=C[C@H](O)[C@@](C)(C(=O)O1)[C@H]2[C@@H]3C(=O)O
- carcinogen call (Species: MOUSE, Strain/Sex: SWISS/FEMALE, Route: GAVAGE, Dose: 0, 3 PPM IN 0.3 ML PHYSIOLOGICAL SALINE 2/WK FOR 22 MO (STUDY DURATION: 22 MO), Tumor Site: Type of Lesion: BREAST: ADENOCARCINOMA, SKIN: SEBACEOUS ADENOMA): active; positive
- carcinogen call (Species: MOUSE, Strain/Sex: SWISS/MALE, Route: GAVAGE, Dose: 0, 3 PPM IN 0.3 ML PHYSIOLOGICAL SALINE 2/WK FOR 22 MO (STUDY DURATION: 22 MO), Tumor Site: Type of Lesion: SKIN: SEBACEOUS ADENOMA, LUNG: TUMOR): active; positive
